In patent EP4603105A1, “PHARMACEUTICAL COMPOSITION CONTAINING CYCLIC COMPOUND HAVING SELECTIVE KRAS INHIBITORY EFFECT AGAINST HRAS AND NRAS” (CHUGAI SEIYAKU KABUSHIKI KAISHA, priority 2022, dated 2024):

Assays:
[1] = target: GDP-bound NRAS wild-type protein (Homo sapiens, UniProt P01111); test: Binding to NRAS by surface plasmon resonance (SPR), KD and KD ratio to KRAS
Outline: (§1)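 Single-cycle kinetics on GDP-loaded biotin-Avi RAS captured to ~100–300 RU; 75 s ascending injections, 100 µL/min, 30°C. HBS pH 7.4 + 10 mM MgCl2/10 µM GDP/4% DMSO. 1:1 fit, KD.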

[2] = system: human lung cancer strain NCI-H441; format: cell-based
Outline: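 Proliferation was scored by […] measured after the reagent was added to cultures kept at 37°C in 5% carbon dioxide.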

[3] = target: HRAS wild-type protein (Homo sapiens, UniProt P01112); test: Binding to HRAS by surface plasmon resonance (SPR), KD and KD ratio to KRAS
Outline: as §1

[4] = ratio of KD for GDP-bound NRAS wild-type protein to KD for KRAS
[5] = ratio of KD for HRAS wild-type protein to KD for KRAS

Sequence of HRAS wild-type protein (P01112 whole entry): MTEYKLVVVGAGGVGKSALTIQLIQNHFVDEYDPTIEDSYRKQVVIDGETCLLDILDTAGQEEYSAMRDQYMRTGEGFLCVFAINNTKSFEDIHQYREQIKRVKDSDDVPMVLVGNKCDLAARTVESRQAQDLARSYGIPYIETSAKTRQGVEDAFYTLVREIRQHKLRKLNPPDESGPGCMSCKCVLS
Sequence of GDP-bound NRAS wild-type protein (P01111 whole entry): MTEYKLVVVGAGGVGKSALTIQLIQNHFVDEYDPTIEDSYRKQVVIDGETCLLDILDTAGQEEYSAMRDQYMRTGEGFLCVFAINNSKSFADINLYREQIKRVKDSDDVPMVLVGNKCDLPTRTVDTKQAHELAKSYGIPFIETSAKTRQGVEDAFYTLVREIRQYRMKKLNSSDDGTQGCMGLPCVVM

SMILES | NRAS /KRAS [1, 4] | IC50 [2] | HRAS /KRAS [3, 5] | NRAS /KRAS ([1]; ratio of KD with respect to GDP-bound NRAS wild-type protein to KD with respect to KRAS) | HRAS /KRAS ([3]; ratio of KD with respect to HRAS wild-type protein to KD with respect to KRAS)
CC[C@H](C)[C@@H]1NC(=O)[C@H](COC)N(C)C(=O)C[C@@H](C(=O)N2CCOCC2)N(C)C(=O)[C@H](C2CCCC2)N(C)C(=O)C2(CCCC2)NC(=O)[C@@H]2C[C@H](O)CN2C(=O)[C@H](CCc2cc(F)c(C(F)(F)F)c(F)c2)NC(=O)CN(C)C(=O)[C@H](Cc2ccc(C(F)(F)F)cc2)N2CCCCC[C@@H](C2=O)N(C)C(=O)CN(C)C1=O [PP0847] | B (a compound having 3 or more and less than 10 is denoted as B) | 136 nM | B (a compound having 3 or more and less than 10 is denoted as B) | – | –
CCO[C@@H]1C[C@H]2C(=O)NC3(CCC3)C(=O)N(C)[C@@H](C3CCCC3)C(=O)N(C)[C@H](C(=O)N(C)CCOC)CC(=O)N(C)[C@@H](CC)C(=O)N[C@@H]([C@@H](C)CC)C(=O)N(C)CC(=O)N(C)[C@H]3C/C=C\CCN(C3=O)[C@@H](Cc3ccc(C(F)(F)F)cc3)C(=O)N(C)CC(=O)N[C@@H](CCc3ccc4sccc4c3)C(=O)N2C1 [PP1322] | – | 56.2 nM | – | A (a compound having 10 or more and less than 20 is denoted as A) | A (a compound having 10 or more and less than 20 is denoted as A)
CCO[C@@H]1C[C@H]2C(=O)NC3(CCC3)C(=O)N(C)[C@@H](C3CCCC3)C(=O)N(C)[C@H](C(=O)N3CCOCC3)CC(=O)N(C)[C@@H](CC)C(=O)N[C@@H]([C@@H](C)CC)C(=O)N(C)CC(=O)N(C)[C@H]3CC(C)=CCN(C3=O)[C@@H](Cc3ccc(C(F)(F)F)cc3)C(=O)N(C)CC(=O)N[C@@H](CCc3cc(F)c(C(F)(F)F)c(F)c3)C(=O)N2C1 [PP1041] | C (A compound having a KD ratio of 0.1 or more and less than 3 is denoted as C) | 223 nM | C (A compound having a KD ratio of 0.1 or more and less than 3 is denoted as C) | – | –
CC[C@H](C)[C@@H]1NC(=O)[C@H](CC(C)C)N(C)C(=O)C[C@@H](C(=O)N2CCOCC2)N(C)C(=O)[C@H](C2CCCC2)N(C)C(=O)C2(CCC2)NC(=O)[C@@H]2C[C@@H](OC)CN2C(=O)[C@H](CCc2cc(F)c(C(F)(F)F)c(F)c2)NC(=O)CN(C)C(=O)[C@H](Cc2ccc(C(F)(F)F)cc2)N2CCCC[C@@H](C2=O)N(C)C(=O)CN(C)C1=O [PP1003] | C (A compound having a KD ratio of 0.1 or more and less than 3 is denoted as C) | 29.1 nM | B (a compound having 3 or more and less than 10 is denoted as B) | – | –
CC[C@H](C)[C@@H]1NC(=O)[C@H](CC(C)C)N(C)C(=O)C[C@@H](C(=O)N2CCOCC2)N(CC)C(=O)[C@H](C2CCCC2)N(C)C(=O)C2(CCCC2)NC(=O)[C@@H]2CCCN2C(=O)[C@H](CCc2ccc(C(F)(F)F)c(Cl)c2)NC(=O)CN(C)C(=O)[C@H](Cc2ccc(F)cc2)N2CCCCC[C@@H](C2=O)N(C)C(=O)CN(C)C1=O [PP0970] | B (a compound having 3 or more and less than 10 is denoted as B) | 340 nM | B (a compound having 3 or more and less than 10 is denoted as B) | – | –
CCO[C@@H]1C[C@H]2C(=O)NC3(CCC3)C(=O)N(C)[C@@H](C3CCCC3)C(=O)N(C)[C@H](C(=O)N3CCOCC3)CC(=O)N(C)[C@@H](CC(C)C)C(=O)N[C@@H]([C@@H](C)CC)C(=O)N(C)CC(=O)N(C)[C@H]3CCCCCN(C3=O)[C@@H](Cc3ccc(F)cc3Cl)C(=O)N(C)CC(=O)N[C@@H](CCc3cc(F)c(C(F)(F)F)c(F)c3)C(=O)N2C1 [PP0918] | B (a compound having 3 or more and less than 10 is denoted as B) | 27.7 nM | B (a compound having 3 or more and less than 10 is denoted as B) | – | –
CCCC[C@H]1C(=O)N[C@@H]([C@@H](C)CC)C(=O)N(C)CC(=O)N(C)[C@H]2C/C=C\CCN(C2=O)[C@@H](Cc2ccc(C)cc2)C(=O)N(C)CC(=O)N[C@@H](CCc2cc(F)c(C(F)(F)F)c(F)c2)C(=O)N2C[C@H](OCC)C[C@H]2C(=O)NC2(CC(C)(C)C2)C(=O)N(C)[C@@H](C2CCCC2)C(=O)N(C)[C@H](C(=O)N(C)CC)CC(=O)N1C [PP2808] | B (a compound having 3 or more and less than 10 is denoted as B) | 13.1 nM | B (a compound having 3 or more and less than 10 is denoted as B) | – | –
